Data taken from the supplement of paper PMC10307832.

Assays:
Test in all cases: relative viability (nuclei count vs DMSO), 5 days (fraction); higher = more cells survive
[1] = compound: Cc1cnc(Nc2ccc(OCCN3CCCC3)cc2)nc1Nc1cccc(S(=O)(=O)NC(C)(C)C)c1 [Fedratinib] + CS(=O)(=O)N1CCN(Cc2cc3nc(-c4cccc5[nH]ncc45)nc(N4CCOCC4)c3s2)CC1 [Pictilisib] (partner 1 µM)
In short: (§1)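 Each reported value is a median over duplicate plates. It expresses relative viability: treated-well nuclei count divided by vehicle-well nuclei count. Lung cancer cell lines in 1536-well plates were dosed by pin tool a day after seeding, alone with one drug or with a fixed anchor-drug dose plus five library-drug doses (not always all listed) in √10 steps, and nuclei were counted after 5 days.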

[2] = compound: Cc1cnc(Nc2ccc(OCCN3CCCC3)cc2)nc1Nc1cccc(S(=O)(=O)NC(C)(C)C)c1 [Fedratinib] + NC(=O)Nc1cc(-c2cccc(F)c2)sc1C(=O)N[C@H]1CCCNC1 [AZD7762] (partner 0.2 µM)
In short: as §1

[3] = compound: COC1=CC=C(C=C1)COC2=C(C=C(C=C2)CC3=CN=C(N=C3N)N)OC [GW-2580] + Nc1ncn([C@H]2C[C@H](O)[C@@H](CO)O2)c(=O)n1 [Decitabine] (partner 2 µM)
In short: as §1

[4] = compound: COC1=CC=C(C=C1)COC2=C(C=C(C=C2)CC3=CN=C(N=C3N)N)OC [GW-2580] + O=C(c1cc(Cc2n[nH]c(=O)c3ccccc23)ccc1F)N1CCN(C(=O)C2CC2)CC1 [Olaparib] (partner 8 µM)
In short: as §1

[5] = compound: COC1=CC=C(C=C1)COC2=C(C=C(C=C2)CC3=CN=C(N=C3N)N)OC [GW-2580] + CC(C)C[C@H](NC(=O)[C@H](Cc1ccccc1)NC(=O)c1cnccn1)B(O)O [Bortezomib] (partner 0.002 µM)
In short: as §1

Q: For NCI-H650, which relative viability ([1]; first compound 0.3162 µM) is on record?
A: Its relative viability is 0.701.

Q: And the relative viability ([1]; first compound 1 µM)?
A: Its relative viability is 0.727.

Q: What about the relative viability ([2]; first compound 0.1 µM) of the same cell line?
A: The relative viability was 1.17.

Q: What about the relative viability ([2]; first compound 0.3162 µM) of the same cell line?
A: The relative viability was 0.933.

Q: And the relative viability ([2]; first compound 1 µM)?
A: Its relative viability is 0.755.

Q: And the relative viability ([3]; first compound 0.08 µM)?
A: The relative viability was 0.337.

Q: And the relative viability ([3]; first compound 0.8 µM)?
A: Its relative viability is 0.315.

Q: And the relative viability ([3]; first compound 2.53 µM)?
A: The relative viability was 0.292.

Q: And the relative viability ([3]; first compound 8 µM)?
A: The relative viability was 0.328.

Q: And the relative viability ([4]; first compound 0.08 µM)?
A: The relative viability was 0.373.

Q: And the relative viability ([4]; first compound 0.8 µM)?
A: The relative viability was 0.379.

Q: And the relative viability ([4]; first compound 2.53 µM)?
A: Its relative viability is 0.364.

Q: What about the relative viability ([4]; first compound 8 µM) of the same cell line?
A: The relative viability was 0.472.

Q: And the relative viability ([5]; first compound 0.08 µM)?
A: Its relative viability is 0.807.

Q: What about the relative viability ([5]; first compound 0.8 µM) of the same cell line?
A: The relative viability was 1.06.

Q: And the relative viability ([5]; first compound 2.53 µM)?
A: Its relative viability is 0.658.

Q: And the relative viability ([5]; first compound 8 µM)?
A: Its relative viability is 0.845.

Q: PC-3 [JPC-3] was tested. Which relative viability ([1]; first compound 0.1 µM) did it give?
A: Its relative viability is 0.694.

Q: And the relative viability ([1]; first compound 0.3162 µM)?
A: The relative viability was 0.836.

Q: What about the relative viability ([1]; first compound 1 µM) of the same cell line?
A: Its relative viability is 0.56.

Q: And the relative viability ([2]; first compound 0.1 µM)?
A: The relative viability was 0.775.

Q: What about the relative viability ([2]; first compound 0.3162 µM) of the same cell line?
A: The relative viability was 0.976.

Q: And the relative viability ([2]; first compound 1 µM)?
A: Its relative viability is 0.668.

Q: What about the relative viability ([3]; first compound 0.08 µM) of the same cell line?
A: The relative viability was 0.8.

Q: What about the relative viability ([3]; first compound 0.8 µM) of the same cell line?
A: The relative viability was 0.855.

Q: And the relative viability ([3]; first compound 2.53 µM)?
A: Its relative viability is 0.829.

Q: What about the relative viability ([3]; first compound 8 µM) of the same cell line?
A: The relative viability was 0.783.

Q: And the relative viability ([4]; first compound 0.08 µM)?
A: Its relative viability is 1.12.

Q: What about the relative viability ([4]; first compound 0.8 µM) of the same cell line?
A: Its relative viability is 1.26.

Q: And the relative viability ([4]; first compound 2.53 µM)?
A: The relative viability was 1.03.

Q: What about the relative viability ([4]; first compound 8 µM) of the same cell line?
A: Its relative viability is 1.15.

Q: And the relative viability ([5]; first compound 0.08 µM)?
A: The relative viability was 0.886.

Q: What about the relative viability ([5]; first compound 0.8 µM) of the same cell line?
A: Its relative viability is 1.01.

Q: What about the relative viability ([5]; first compound 2.53 µM) of the same cell line?
A: The relative viability was 0.846.

Q: And the relative viability ([5]; first compound 8 µM)?
A: Its relative viability is 0.792.
